Common to all, as to type: cell-based
Assay [1] deals with IL-1β. As to the kind of experiment: PBMC assay, LPS-induced IL-1β (Meso Scale). The following applies: Homo sapiens, PBMCs, 100 ng/mL LPS 18-24 hrs; for inhibition at 0.1 µM: compound at 0.1 μM; for inhibition at 1 µM: compound at 1 μM. The method, then: FIG. 1 represents the activity against IL-1-beta in peripheral blood mononuclear cells (PBMCs), plated in 96 well plates and pretreated with compound for 1 hour and then induced with 100 ng/mL LPS for 18-24 hrs. Cytokines in the media were measured according to MesoScale protocol. Negative control wells were treated with DMSO. Compound activity is measured as a percentage of LPS-induced activity.
(§1) Frozen primary blood mononuclear cells (PBMCs) were purchased from AllCells. Cells were quick thawed, washed once with RPMI-1640/10% FBS.
(§2) 1% Penicillin/1% Streptomycin and plated in 96 well plates at 200,000 cells per well. Cells were pretreated with DMSO only, or Compound 1 for 1 hour and then induced with 100 ng/mL lipopolysaccharide (LPS) for 18-24 hrs. The supernatant was analyzed for IL-1 beta, IL-6, and TNFα, using Meso Scale assay according to manufacturer's protocol. The negative control wells were treated with DMSO.
(§3) Compound activity was measured as fold difference from the DMSO control. IL-1β activity is shown in FIG. 1; IL-6 activity is shown in FIG. 2; TNFα activity is shown in FIG. 3; and IL-2 activity is shown in FIG. 4. Additional data for compounds (shown as percent inhibition) at 10 μM is shown in Table 1; at 1 μM in Table 2; and at 0.1 μM in Table 3.

In assay [2] the test system is TNFα. Put plainly: PBMC assay, LPS-induced TNFα (Meso Scale). The following applies: Homo sapiens, PBMCs, 100 ng/mL LPS 18-24 hrs; for inhibition at 0.1 µM: compound at 0.1 μM; for inhibition at 1 µM: compound at 1 μM. The method, then: FIG. 3 represents the activity against TNFα in peripheral blood mononuclear cells (PBMCs), plated in 96 well plates and pretreated with compound for 1 hour and then induced with 100 ng/mL LPS for 18-24 hrs. Cytokines in the media were measured according to MesoScale protocol. The negative control wells were treated with DMSO. Compound activity is measured as a percentage of LPS-induced activity.
as §1, §2, §3

Assay [3] concerns MV-4-11 cells. Put plainly: Cell viability assay (CellTiter-Glo), MV-4-11 proliferation. The following applies: Homo sapiens, MV4-11, 72 h, 3 days; for inhibition at 1 µM: compound at 1 μM; for inhibition at 10 µM: compound at 10 μM. The procedure: (§4) Molm-13 and MV-4-11 cells were cultivated in RPMI-1640 (10% FBS/1% pen-strep) and were plated in white walled 96-well plates at 20,000 cells/well.
(§5) Cells were treated with compound at the indicated concentration or DMSO (control) and the cultures were incubated for 3 days at 37° C. and 5% CO2. Following the incubation period, 100 μL of CellTiterGlow (CTG) reagent (CellTiter-Glo® Luminescent Cell Viability Assay, Promega (Madison, Wis.)) was added to each well. Following a 10 min incubation with shaking, luminescence was measured using a Victor Wallac Luminometer.
For orientation: In ATP-based viability assays light output follows the ATP content of the culture.

Assay [4] concerns Molm-13 cells. As to the kind of experiment: Cell viability assay (CellTiter-Glo), Molm-13 proliferation. The conditions noted are these: Homo sapiens, MOLM-13, 72 h, 3 days; for inhibition at 1 µM: compound at 1 μM; for inhibition at 10 µM: compound at 10 μM; for inhibition at 0.1 µM: compound at 0.1 μM. The procedure:
as §4, §5

For assay [5], the system named is IL-2. Put plainly: Anti-CD3-induced IL-2 secretion in PBMCs (Mesoscale). The conditions noted are these: Homo sapiens, PBMC, anti-CD3 stimulated PBMCs, 24 hr, vs DMSO control, read-out: IL-2 Fold Change; for fold induction at 0.1 µM: compound at 0.1 μM; for fold induction at 1 µM: compound at 1 μM. The method, then:
FIG. 4 represents Anti-CD3-induced IL-2 secretion in PBMCs. 1 μg/mL anti-CD3 (OKT-3) antibody in PBS coated onto 96-well plates overnight at 4° C. Approximately, 550,000 PBMCs were added to each well, followed by addition of DMSO only (control) or Compound 1. Induction was measured after 24 hrs as fold difference from the DMSO stimulated control.
as §1
For the IL-2 analysis, 96 well plates were precoated with 1 μg/mL anti-human CD3 antibody (OKT3, eBioscience Inc.). After washing with PBS, Compound 1 was added (50 μL/well) followed by PBMCs diluted at 3-4 million cells/mL (150 μL/well). Plates were incubated for 24 hr and the supernatants collected for Mesoscale IL-2 analysis.
as §3

Assay [6] has as its system IL-6. As to the kind of experiment: PBMC assay, LPS-induced IL-6 (Meso Scale). The following applies: Homo sapiens, PBMCs, 100 ng/mL LPS 18-24 hrs; for inhibition at 0.1 µM: compound at 0.1 μM; for inhibition at 1 µM: compound at 1 μM. The method, then: FIG. 2 represents the activity against IL-6 in peripheral blood mononuclear cells (PBMCs), plated in 96 well plates and pretreated with compound for 1 hour and then induced with 100 ng/mL LPS for 18-24 hrs. Cytokines were measured according to MesoScale protocol. Negative control wells were treated with DMSO. Compound activity was measured as a percentage of LPS-induced activity.
as §1, §2, §3

The structures appear in SMILES notation.

Consider `O=C1CCC[C@H](N2Cc3c(OCc4ccc(CN5CCOc6ccccc65)cc4)cccc3C2=O)C(=O)N1` [Compound 2, (S)-3-(4-((4-((2,3-dihydro-4H-benzo[b][1,4]oxazin-4-yl)methyl)benzyl)oxy)-1-oxoisoindolin-2-yl)azepane-2,7-dione], for which the inhibition (commonly the change of the read-out against control, counted positive when it falls) at 0.1 µM in assay [1] amounted to 72%; in assay [2], 81%; in assay [6], 43%. The inhibition at 1 µM in assay [1] was found to be 86%; in assay [2] it was 90%; in assay [3], 6%; in assay [4] it was 5%; in assay [6], 67%. The inhibition at 10 µM worked out at 16% in assay [3] and 30% in assay [4]. The fold induction at 0.1 µM in assay [5] amounted to 1.3. For the same molecule, the fold induction at 1 µM in assay [5] is 2.3.
Consider `O=C1CCC[C@H](N2Cc3c(OCc4ccc(C(=O)N5CCOCC5)cc4)cccc3C2=O)C(=O)N1` [Compound 8, (S)-3-{4-[(p-Morpholinocarbonlphenyl)methoxy]-2-isoindolinoyl}-2,7-azepanedione], for which the inhibition at 0.1 µM turned out to be 73% in assay [1], 63% in assay [2] and 56% in assay [6]. In assay [3], this molecule yielded an inhibition at 1 µM of 0%. For the same molecule, the inhibition at 10 µM worked out at 0% in assay [3] and 16% in assay [4]. For the same molecule, the fold induction at 0.1 µM in assay [5] came out at 1.8. Also, the fold induction at 1 µM in assay [5] was determined as 2.3.
On to `O=C1CCC[C@H](N2Cc3c(OCCc4ccc(CN5CCOCC5)cc4)cccc3C2=O)C(=O)N1` [Compound 26, (S)-3-(4-{2-[p-(Morpholinomethyl)phenyl]ethoxy}-2-isoindolinoyl)-2,7-azepanedione], for which the inhibition at 0.1 µM in assay [1] was 78%; in assay [2], 82%; in assay [4] it was 21%; in assay [6], 5%. The inhibition at 1 µM came out at 81% in assay [1]; 87% in assay [2]; 2% in assay [3]; 66% in assay [4]; 8% in assay [6]. The same molecule came in with an inhibition at 10 µM in assay [3] of 23%. The fold induction at 0.1 µM in assay [5] is 2.6. In assay [5], the fold induction at 1 µM amounted to 2.7.
In the case of `Cc1cnc(Nc2ccc(OCCCNC(=O)NCc3ccc(COc4cccc5c4CN([C@H]4CCCC(=O)NC4=O)C5=O)cc3)cc2)nc1Nc1cccc(S(=O)(=O)NC(C)(C)C)c1` [Compound 13], the inhibition at 1 µM in assay [1] worked out at 51%; in assay [2], 84%; in assay [3], 0%; in assay [4] it was 29%; in assay [6], 59%. Moreover, the inhibition at 10 µM in assay [3] was 50%. For the same molecule, the fold induction at 10 µM in assay [5] (compound 10 μM) is 0.1. In addition, the fold induction at 1 µM in assay [5] is 0.3.
With `Cc1cnc(Nc2ccc(OCCCNC(=O)NCc3ccc4c(c3OCc3ccc(CN5CCOCC5)cc3)CN([C@H]3CCC(=O)NC3=O)C4=O)cc2)nc1Nc1cccc(S(=O)(=O)NC(C)(C)C)c1` [Compound 23], the inhibition at 0.1 µM in assay [1] stood at 35%; in assay [2], 48%; in assay [6], 23%. For the same molecule, the inhibition at 1 µM in assay [1] was determined as 79%; in assay [2] it was 88%; in assay [3], 8%; in assay [4], 30%; in assay [6], 32%. The molecule further showed an inhibition at 10 µM in assay [3] of 79%. For the same molecule, the fold induction at 0.1 µM in assay [5] turned out to be 0.9. Besides, the fold induction at 1 µM in assay [5] worked out at 1.3.
Turning to `NCc1ccc(COc2cccc3c2CN([C@H]2CCCC(=O)NC2=O)C3=O)cc1` [Compound 5, trifluoroacetic acid], the inhibition at 0.1 µM in assay [1] was 64%; in assay [2], 55%; in assay [6], 37%. Moreover, 1 µM produced 1% inhibition in assay [3]. Also, the figures for the inhibition at 10 µM in assay [3] and in assay [4] were 3% and 40%, respectively. The fold induction at 0.1 µM in assay [5] was 1.2. For the same molecule, the fold induction at 1 µM in assay [5] was 2.1.
Turning to `Cc1cnc(Nc2ccc(OCCCNC(=O)NCc3ccc4c(c3OCc3ccc(CN5CCOCC5)cc3)CN([C@H]3CCCC(=O)NC3=O)C4=O)cc2)nc1Nc1cccc(S(=O)(=O)NC(C)(C)C)c1` [Compound 27], the figures for the inhibition at 0.1 µM in assay [1], in assay [2] and in assay [6] were 50%, 60% and 5%, respectively. Besides, the inhibition at 1 µM in assay [1] was determined as 62%; in assay [2], 72%; in assay [3], 10%; in assay [4], 37%; in assay [6], 4%. The molecule also gave an inhibition at 10 µM in assay [3] of 36%. Also, the fold induction at 0.1 µM in assay [5] was determined as 1.3. In assay [5], the fold induction at 1 µM stood at 1.5.
On to `NCc1ccc2c(c1OCc1ccc(CN3CCOCC3)cc1)CN([C@H]1CCCC(=O)NC1=O)C2=O` [Compound 22, ditrifluoroacetic acid], for which the inhibition at 0.1 µM in assay [1] worked out at 69%; in assay [2], 78%; in assay [4], 31%; in assay [6] it was 23%. Also, the inhibition at 1 µM in assay [1] is 74%; in assay [2], 80%; in assay [3] it was 2%; in assay [4], 56%; in assay [6] it was 27%. In assay [3], this molecule yielded an inhibition at 10 µM of 4%. Further, the fold induction at 0.1 µM in assay [5] came out at 2. Further, in assay [5], the fold induction at 1 µM was 2.4.
In the case of `NCc1cccc(COc2cccc3c2CN([C@H]2CCCC(=O)NC2=O)C3=O)c1` [Compound 9, trifluoroacetic acid], the figures for the inhibition at 0.1 µM in assay [1], in assay [2] and in assay [6] were 74%, 62% and 51%, respectively. The molecule also gave an inhibition at 1 µM in assay [3] of 2%. Moreover, the inhibition at 10 µM came out at 10% in assay [3] and 34% in assay [4]. Besides, in assay [5], the fold induction at 0.1 µM was 1.6. Besides, the fold induction at 1 µM in assay [5] was 1.6.
For `O=C1CCC[C@H](N2Cc3c(OCc4cccc(CN5CCOCC5)c4)cccc3C2=O)C(=O)N1` [Compound 10], the inhibition at 0.1 µM worked out at 52% in assay [1], 48% in assay [2] and 27% in assay [6]. In assay [3], this molecule showed an inhibition at 1 µM of 1%. In addition, the results for the inhibition at 10 µM in assay [3] and in assay [4] were 35% and 38%, respectively. Also, the fold induction at 0.1 µM in assay [5] was determined as 1.9. In addition, the fold induction at 1 µM in assay [5] came to 2.1.
On to `Cc1cnc(Nc2ccc(OCCCNC(=O)NCc3ccc(COc4cccc5c4CN([C@H]4CCC(=O)NC4=O)C5=O)cc3)cc2)nc1Nc1cccc(S(=O)(=O)NC(C)(C)C)c1` [Compound 20], for which the inhibition at 0.1 µM in assay [1] worked out at 30%; in assay [2], 43%; in assay [4] it was 93%; in assay [6], 1%. Further, the inhibition at 1 µM stood at 43% in assay [1]; 57% in assay [2]; 77% in assay [3]; 99% in assay [4]; 5% in assay [6]. For the same molecule, the inhibition at 10 µM in assay [3] turned out to be 88%. Moreover, the fold induction at 0.1 µM in assay [5] turned out to be 0.9. Also, the fold induction at 1 µM in assay [5] was 1.4.

The values are drawn from patent publication US10927104B2, “Ether compounds and uses thereof” (BioTheryX, Inc., priority 2017, dated 2021).
